Measurements from ChEMBL document CHEMBL1201862, “PubChem BioAssay data set” (2004).
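Growth conditions: 96-well plates. Treatment: test compound, 48 hours, 5 concentrations. Analysis: linear interpolation between bracketing concentrations; unreached endpoints set to highest concentration. GI50 marks 50% less growth.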 The source made the active and inactive calls. No stated cut-off is given here; in the data, active = GI50 up to about 1.1 µM and inactive = higher. *1 amine or outer side, *2 acyl side, *3 side chain or, on linkers, in order; H or OH if unused. Where a SMILES comes first, the peptide text is derived from it. [ ]: non-standard residue; d: D form. The star is where a group is joined. ξ: configuration not given here. X43 = CCC(=O)CC(O)CC(C)CC(N[*:1])C(=O)[*:2]; ξLeu(3ξ-OH) = CC(C)C(O)C(N)C(=O)O; ξPro(4ξ-Me) = CC1CNC(C(=O)O)C1; X42 = CCC(C)/C=C/C(=O)*; Aib = CC(C)(N)C(=O)O; X44 = CC(CN(C)C)N*; βAla = NCCC(=O)O

Legend:
Assay in all cases: NCI tumour cell line growth inhibition, 48 h
[1] = test system: DMS-273
[2] = test system: SNB-78
[3] = test system: M19-MEL
[4] = test system: KM-20L2
[5] = test system: DLD-1
[6] = test system: HOP-18
[7] = test system: XF498
[8] = test system: BT-549
[9] = test system: RXF 631

CCC(C)(O)c1cn(-c2ccc(Cl)cc2)nn1 (stereo unspecified)
GI50 [1]: > 100 µM (inactive)
GI50 [2]: > 100 µM (inactive)
GI50 [3]: > 100 µM (inactive)
GI50 [4]: > 100 µM (inactive)
GI50 [5]: > 100 µM (inactive)
GI50 [6]: > 100 µM (inactive)

COc1c(C)cc2c(c1O)C1C3[C@H]4SC[C@@]5(NCCC6=C5NC5C=CC=CC65)C(=O)OCC(c5c6c(c(C)c(OC(C)=O)c54)OCO6)N3[C@@H](O)C(C2)N1C (stereo partly specified)
GI50 [1]: < 0.01 µM (active)
GI50 [3]: < 0.01 µM (active)
GI50 [4]: < 0.01 µM (active)
GI50 [5]: < 0.01 µM (active)
GI50 [7]: < 0.01 µM (active)

CC(C)Cc1c(C#N)c(C#N)c(N)n1Cc1ccccc1
GI50 [8]: > 100 µM (inactive)

Cc1nc2ccc(F)cc2c2c1CCN2c1ccccc1
GI50 [8]: 23.4 µM (inactive)

NC(CSSCC(N)Cc1ccccc1)Cc1ccccc1 (stereo unspecified)
GI50 [1]: > 10 µM (inactive)
GI50 [2]: > 100 µM (inactive)
GI50 [3]: 49 µM (inactive)
GI50 [4]: 71.1 µM (inactive)
GI50 [5]: 49.5 µM (inactive)
GI50 [7]: 27.1 µM (inactive)

CCC1(CC)C(=O)OC(=O)C1(CC)CC
GI50 [8]: > 100 µM (inactive)

NC1=NS(=O)(=O)Nc2nc(-c3ccc([N+](=O)[O-])cc3)[nH]c21
GI50 [1]: > 100 µM (inactive)
GI50 [3]: > 100 µM (inactive)
GI50 [5]: > 100 µM (inactive)
GI50 [6]: > 100 µM (inactive)

COc1cc2cc(C(=O)N3CC(CCl)c4c3cc(NCCN)c3ccccc43)[nH]c2c(OC)c1OC (stereo unspecified)
GI50 [8]: 0.0333 µM (active)

C[N+]1(C(CO)Cc2c[nH]c3ccccc23)Cc2ccccc2C1 (stereo unspecified)
GI50 [8]: 77.6 µM (inactive)

CSc1nc2cc(S(=O)(=O)N3CCCCC3)ccc2s1
GI50 [8]: > 100 µM (inactive)

CC(C)(C)C(=O)c1c(O)c2ccccc2c2ccccc2c1=O
GI50 [8]: 32.4 µM (inactive)

CC(=O)/C(=C\c1ccc(Cl)c(Cl)c1)C(=O)C(C)CN(C)C (stereo unspecified)
GI50 [8]: 2.26 µM (inactive)

CCc1[nH]c(=O)c2oc3cc4ccccc4cc3c2c1C(=O)O
GI50 [8]: > 10 µM (inactive)

CCn1c(=O)c2c3cc(OC(C)=O)ccc3oc2c2ccc(OC(C)=O)cc21
GI50 [8]: 30.5 µM (inactive)

CCCCCCC(=O)OC[n+]1ccc2c(C)c3[nH]c4ccccc4c3c(C)c2c1
GI50 [1]: 0.106 µM (active)
GI50 [2]: 1.09 µM (active)
GI50 [9]: 2.54 µM (inactive)
GI50 [3]: 1.04 µM (active)
GI50 [4]: 0.582 µM (active)
GI50 [5]: 0.4 µM (active)

CCOC(=O)C1(C#N)C(C#N)(C#N)C1(C#N)C#N
GI50 [8]: > 100 µM (inactive)

COCN1COCN(C)C1=O
GI50 [1]: > 100 µM (inactive)
GI50 [2]: > 100 µM (inactive)
GI50 [3]: > 100 µM (inactive)
GI50 [4]: > 100 µM (inactive)
GI50 [5]: > 100 µM (inactive)
GI50 [6]: > 100 µM (inactive)
GI50 [7]: > 100 µM (inactive)

COC(=O)/C(C#N)=C1\CCC(Nc2cccc(C(F)(F)F)c2)N1C (stereo unspecified)
GI50 [2]: > 100 µM (inactive)
GI50 [4]: 56 µM (inactive)
GI50 [5]: 57.5 µM (inactive)
GI50 [6]: > 100 µM (inactive)
GI50 [7]: 66.2 µM (inactive)

S=C1NCCN1C(=S)Nc1ccccc1
GI50 [8]: 83 µM (inactive)

Clc1ccccc1C(Nc1ncccn1)Nc1ncccn1
GI50 [8]: > 100 µM (inactive)

CN1CN(C2OC(CO)C(O)C2O)c2nc(N)[nH]c(=O)c21 (stereo unspecified)
GI50 [1]: > 100 µM (inactive)
GI50 [2]: > 100 µM (inactive)
GI50 [3]: > 100 µM (inactive)
GI50 [4]: > 100 µM (inactive)
GI50 [5]: > 100 µM (inactive)
GI50 [6]: > 100 µM (inactive)
GI50 [7]: > 100 µM (inactive)

C[C@]12CCC3c4ccc(O)cc4CC[C@H]3C1CC(=O)N(CCN1CCCC1)C2=O (stereo partly specified)
GI50 [8]: > 10 µM (inactive)

CCC(=O)CC(O)CC(C)CC(NC(=O)C1CC(C)CN1C(=O)/C=C/C(C)CC)C(=O)NC(C(=O)NC(C)(C)C(=O)NC(CC(C)C)C(=O)NC(CC(C)C)C(=O)NC(C)(C)C(=O)NC(C)(C)C(=O)NCCC(=O)NC(C)CN(C)C)C(O)C(C)C (stereo unspecified) (X42-[ξPro(4ξ-Me)][X43][ξLeu(3ξ-OH)][Aib]LL[Aib][Aib][βAla]-X44; configuration not given here)
GI50 [8]: 0.29 µM (active)

COc1ccc(NC(=O)CC/C(CC(=O)c2ccco2)=N/NC(=O)C(N)=O)cc1
GI50 [1]: > 100 µM (inactive)
GI50 [3]: 74.6 µM (inactive)
GI50 [4]: > 100 µM (inactive)
GI50 [5]: > 100 µM (inactive)
GI50 [6]: > 100 µM (inactive)
GI50 [7]: 82.8 µM (inactive)

Clc1ccc(/C=C/c2nc(-c3ccc(Cl)cc3)cn3c2nc2ccccc23)cc1
GI50 [8]: > 100 µM (inactive)

O=S(=O)(N/C(=N\O)Nc1ccc(Cl)cc1)c1cc2ccccc2o1
GI50 [8]: 17.9 µM (inactive)

CC1CC(C(=O)OC2OC(COC3OC(CO)C(OC4OC(C)C(O)C(O)C4O)C(O)C3O)C(O)C(O)C2O)C2CCC3(C)C(=CCC4(C)C3CCC3C(C)(CO)C(O)C(O)CC34C)C2C1C (stereo unspecified)
GI50 [8]: 17.7 µM (inactive)

O=C(NN=C1NCCCCN1)Nc1ccc(Cl)cc1
GI50 [8]: > 100 µM (inactive)

COc1cc2c(cc1OC)-c1cc(OC)c(OC)cc1[C@H]1CN3CCC[C@@]3(O)C=C21
GI50 [1]: < 0.0001 µM (active)
GI50 [2]: < 0.0001 µM (active)
GI50 [3]: < 0.0001 µM (active)
GI50 [4]: < 0.0001 µM (active)
GI50 [5]: < 0.0001 µM (active)
GI50 [6]: < 0.0001 µM (active)
GI50 [7]: < 0.0001 µM (active)

C[N+]12C=CC=C1C(N1CCCC1)c1sc(-c3ccc(Cl)cc3)cc12 (stereo unspecified)
GI50 [8]: 10.3 µM (inactive)

C[C@]12CC[C@H]3[C@@H](CCC4=C(Br)C(=O)C=C[C@@]43O)[C@@H]1CCC2=O
GI50 [8]: 20.7 µM (inactive)

CC(=O)OCC12C(=O)C[C@@H](C)C3(CC(c4ccoc4)OC3=O)C1CCC(OC(C)=O)C21CO1 (stereo partly specified)
GI50 [8]: > 100 µM (inactive)
